# From US20240252668A1, “ANTIBODY DRUG CONJUGATES AND METHODS FOR MAKING THEREOF” (Novartis AG, priority 2021, published 2024)
# Like-named read-outs stand apart in the source and are kept apart here. Starred links: 1 amine or outer side, 2 acyl side, 3 side chain; linkers in the order of their positions; H or OH if unused. Non-standard residues stand in square brackets, D forms with d. Residues, ends and D or L forms follow the SMILES beside them. *: point of attachment. Leu(3R-OH,Nα-propionyl) = CCC(=O)N[C@H](C(=O)*)[C@H](O)C(C)C; X1 = CC(C)[C@@H](O[*:3])[C@H](N[*:1])C(=O)[*:2]; NMeT = CN[C@H](C(=O)O)[C@@H](C)O; dPhLac = O=C(O)[C@H](O)Cc1ccccc1; X2 = CC(C)C=C(N[*:1])C(=O)[*:2]; NMeA = CN[C@@H](C)C(=O)O; NMeDha = C=C(NC)C(=O)O
# Assays:
# [1] = Plasma incubation of compound (A1), human plasma, LC-MS/MS quantification; type: in vitro ADME; details: formed in incubation of (A1) in human plasma, 37° C.
# Method: Plasma incubations and sample preparation: Compound (A1) was spiked at 5.00 μg/mL in PBS and pooled mixed gender mouse (CD-1), cynomolgus monkey and human plasma. Samples were incubated on a Thermomixer (Eppendorf) at 37° C. while shaking at 650 rpm. Aliquots of 50 μL (n=3) were drawn from each incubation tube following 0, 0.5, 1, 2, 4, 8 and 24 h of incubation. 50 μL of sample was quenched with 200 μL of acetonitrile, containing both generic internal standards, glybenclamide and warfarin, at 62.5 ng/mL. Samples were briefly vortexed and centrifuged for 20 min at 4000 rpm and 4° C. 200 μL of the supernatant was transferred into a clean 800 μL 96-well sample collection plate.
# Quantification by LC-MS/MS: LC-MS/MS analysis was conducted with a Shimadzu Nexera UPLC coupled to AB Sciex QTRAP 6500 using the SRM acquisition mode (3 μL injected). Samples were analyzed using a ACE 3° C.18-PFP (3 μM, 2.1×50 mm column) at a column temperature of 65° C. The starting conditions were 97% H20 containing 0.1% formic acid and 3% CH3CN containing 0.1% formic acid. Quantification of compound (A1) and 5 was performed by MS-MRM (electrospray in positive mode, ion spray voltage: 5000 V, source temperature: 500° C., curtain gas: 25 psig, nebulizer gas: 60 psig, turbo ion spray gas: 40 psig, mass range: low, resolution Q1/Q3: unit, collision gas: medium, dwell time: 12 msec). Separate calibration curves were established with calibration standards of compounds (A1) and 5 at concentrations of 10.0, 5.00, 2.50, 1.00, 0.500, 0.100, 0.050 and 0.010 μg/mL respectively. Peak integration and quantification was conducted with the AB Sciex Analyst software (v.1.7) using the Analyst Classic algorithm. […]
# [2] = test system: 92.1 uveal melanoma cell line (heterozygous GNAQ Q209L); experiment: Cell proliferation assay (resazurin cell viability), 92.1 cell line; type: cell-based
# From the text: (§1) Cell Proliferation Assays with Chromodepsins (compounds (A1) and 2-15): Cell line descriptions: 92.1—uveal melanoma cell line, derived from primary tumor, harboring heterozygous GNAQ Q209L mutation. Purchased from Sigma Aldrich. MP41 (CRL-3297) -uveal melanoma cell line, derived from primary tumor, harboring heterozygous GNA11 Q209L mutation. Purchased from ATCC. A375—skin melanoma cell line, harboring homozygous BRAF V600E mutation. Origin: Cancer Cell Line Encyclopedia (CCLE). SK-MEL-30—skin melanoma cell line, harboring heterozygous NRAS Q61K mutation. Origin: CCLE.
# (§2) Cells were cultured in 96-well plates in a total volume of 100 μL at 37° C., 5% CO2 and 95% relative humidity. All cell lines were cultured in RPMI Medium (RPMI 1640 w/o L-glutamine, Bioconcept ref. 1-41F01-I) except A375, DMEM medium (DMEM high glucose (4.5 g/L), Bioconcept, ref. 1-26F01-I), and supplemented with 10% FCS (Bioconcept, ref. 2-01F30-I). Two to three thousand cells were seeded in 96-well plates per well the night before they were treated with compounds (concentration range: from 260 nM to 0.036 nM with ⅓ dilution steps; for 7 the concentration range was increased from 10000 nM to 1.52 nM with ⅓ dilution steps). Cell viability was measured by addition of 10 ul of resazurin per well after 96 hours of treatment. Results were analyzed and plotted using GraphPad Prism 9.0.1.
# [3] = test system: A375 skin melanoma cell line (homozygous BRAF V600E); experiment: Cell proliferation assay (resazurin cell viability), A375 cell line; type: cell-based
# From the text: as §1, §2
# [4] = EPSA determination by supercritical fluid chromatography; type: physicochemical; details: modified EPSA method, SFC
# Method: […] by supercritical fluid chromatography: Compounds (A1) and 2-15 were tested by supercritical fluid chromatography (SFC) to determine their ESAPSA values. Samples were analyzed using a Chirex 3014 column ([…], 3×100 mm column, 100 Å pore size; Phenomenex. The starting conditions were 5% methanol containing 20 mM ammonium formate and 95% scCO2. The gradient was increased linearly to 60% methanol containing 20 mM ammonium formate in 4.5 min.
# [5] = test system: SK-MEL-30 skin melanoma cell line (heterozygous NRAS Q61K); experiment: Cell proliferation assay (resazurin cell viability), SK-MEL-30 cell line; type: cell-based
# From the text: as §1, §2
# MDCK-LE monolayers = experiment: Cell-based transwell assay with MDCK-low efflux monolayers (passive permeability); type: in vitro ADME; details: MDCK-LE monolayers
# Method: Cell-based transwell assays with MDCK-low efflux monolayers: Compounds (A1) and 2-15 were tested in MDCK cell sub-clones with low effluxt ransporter activity (MDCK-LE) in order to determine their passive permeability. The incubations were performed at a contract research organization as described previously.
# [6] = test system: MP41 uveal melanoma cell line (heterozygous GNA11 Q209L); experiment: Cell proliferation assay (resazurin cell viability), MP41 cell line; type: cell-based
# From the text: as §1, §2
smiles,measurement,setting,value
"C=C(C(=O)N[C@@H](C)C(=O)N(C)[C@@H](C)C(=O)N[C@H](C(=O)N(C)[C@H](C(=O)O)[C@@H](C)OC)[C@H](OC(=O)[C@@H](NC(=O)CC)[C@H](O)C(C)C)C(C)C)N(C)C(=O)[C@@H](Cc1ccccc1)OC(=O)C(=CC(C)C)NC(C)=O [Compound 5] (Ac-[X2][dPhLac][NMeDha]A[NMeA][X1](Leu(3R-OH,Nα-propionyl))[NMeT](Me)-OH)","Concentration of 5, Aliquot 1",[1]; 0 h,BLQ
same,"Concentration of 5, Aliquot 2",[1]; 0 h,BLQ
same,"Concentration of 5, Aliquot 3",[1]; 0 h,BLQ
same,"Concentration of 5, Aliquot 1",[1]; 0.5 h,61.3 ng/mL
same,"Concentration of 5, Aliquot 2",[1]; 0.5 h,67.3 ng/mL
same,"Concentration of 5, Aliquot 3",[1]; 0.5 h,67.1 ng/mL
same,Mean concentration of 5,[1]; 0.5 h,65.2 ng/mL
same,"Concentration of 5, Aliquot 1",[1]; 1 h,117 ng/mL
same,"Concentration of 5, Aliquot 2",[1]; 1 h,123 ng/mL
same,"Concentration of 5, Aliquot 3",[1]; 1 h,142 ng/mL
same,Mean concentration of 5,[1]; 1 h,127 ng/mL
same,"Concentration of 5, Aliquot 1",[1]; 2 h,255 ng/mL
same,"Concentration of 5, Aliquot 2",[1]; 2 h,289 ng/mL
same,"Concentration of 5, Aliquot 3",[1]; 2 h,317 ng/mL
same,Mean concentration of 5,[1]; 2 h,287 ng/mL
same,"Concentration of 5, Aliquot 1",[1]; 4 h,615 ng/mL
same,"Concentration of 5, Aliquot 2",[1]; 4 h,647 ng/mL
same,"Concentration of 5, Aliquot 3",[1]; 4 h,677 ng/mL
same,Mean concentration of 5,[1]; 4 h,646 ng/mL
same,"Concentration of 5, Aliquot 1",[1]; 8 h,1370 ng/mL
same,"Concentration of 5, Aliquot 2",[1]; 8 h,1480 ng/mL
same,"Concentration of 5, Aliquot 3",[1]; 8 h,1570 ng/mL
same,Mean concentration of 5,[1]; 8 h,1470 ng/mL
same,"Concentration of 5, Aliquot 1",[1]; 24 h,3140 ng/mL
same,"Concentration of 5, Aliquot 2",[1]; 24 h,2820 ng/mL
same,"Concentration of 5, Aliquot 3",[1]; 24 h,3140 ng/mL
same,Mean concentration of 5,[1]; 24 h,3030 ng/mL
same,GI50,"[2]; 92.1 (GNAQ Q209L), 96 hours of treatment, read-out: GI50 by cell line, 92.1",> 260 nM
same,GI50,"[2]; 92.1 cell line, average of Rep. 1 and 2, read-out: GI50 92.1 Average",> 260 nM
same,GI50,"[2]; 92.1 cell line, replicate 1, read-out: GI50 92.1 Rep. 1",> 260 nM
same,GI50,"[2]; 92.1 cell line, replicate 2, read-out: GI50 92.1 Rep. 2",> 260 nM
same,GI50,"[3]; A375 (GNAQ/11 wild type), 96 hours of treatment, read-out: GI50 by cell line, A375",> 260 nM
same,GI50,"[3]; A375 cell line, average of Rep. 1 and 2, read-out: GI50 A375 Average",> 260 nM
same,GI50,"[3]; A375 cell line, replicate 1, read-out: GI50 A375 Rep. 1",> 260 nM
same,GI50,"[3]; A375 cell line, replicate 2, read-out: GI50 A375 Rep. 2",> 260 nM
same,EPSA,[4],229 A^2
same,GI50,"[5]; SK-MEL-30 (GNAQ/11 wild type), 96 hours of treatment, read-out: GI50 by cell line, SK-MEL-30",> 260 nM
same,GI50,"[5]; SK-MEL-30 cell line, average of Rep. 1 and 2, read-out: GI50 SK-MEL-30 Average",> 260 nM
same,GI50,"[5]; SK-MEL-30 cell line, replicate 1, read-out: GI50 SK-MEL-30 Rep. 1",> 260 nM
same,GI50,"[5]; SK-MEL-30 cell line, replicate 2, read-out: GI50 SK-MEL-30 Rep. 2",> 260 nM
same,% Fraction absorbed,MDCK-LE monolayers,4.2%
same,% Recovery,MDCK-LE monolayers,86%
same,Papp A − B,MDCK-LE monolayers,0.27 ×10⁻⁶ cm/s
same,GI50,"[6]; MP41 (GNA11 Q209L), 96 hours of treatment, read-out: GI50 by cell line, MP41",> 260 nM
same,GI50,"[6]; MP41 cell line, average of Rep. 1 and 2, read-out: GI50 MP41 Average",> 260 nM
same,GI50,"[6]; MP41 cell line, replicate 1, read-out: GI50 MP41 Rep. 1",> 260 nM
same,GI50,"[6]; MP41 cell line, replicate 2, read-out: GI50 MP41 Rep. 2",> 260 nM
